According to BigSolDB 2.1:

O=C1NS(=O)(=O)c2ccccc21
solubility (mole fraction)
Details	278.15 K	283.15 K	288.15 K	293.15 K	298.15 K	303.15 K	308.15 K	313.15 K	318.15 K	323.15 K
in acetone	0.0222	0.025	0.0286	0.0326	0.0374	0.0422	0.0484	0.0554	0.0635	0.071
in ethanol	0.00486	0.00578	0.00686	0.00814	0.00964	0.0114	0.0134	0.0158	0.019	0.0231
in ethyl acetate	0.00883	0.0111	0.0139	0.0169	0.0203	0.0241	0.0287	0.0342	0.0401	0.0474
in isobutanol	0.00181	0.00222	0.00279	0.00355	0.00433	0.00538	0.00654	0.00791	0.00953	0.0114
in isopropanol	0.00382	0.0045	0.00532	0.00632	0.00752	0.00895	0.0106	0.0126	0.015	0.0181
in methanol	0.00542	0.00665	0.00806	0.00969	0.0115	0.0135	0.0157	0.0185	0.0217	0.0257
in n-propanol	0.00311	0.00369	0.00439	0.00526	0.00621	0.00756	0.00902	0.0109	0.0129	0.0157
